{
  "source": "patent US12636284B2",
  "about": "“Compositions for use in the prevention and/or treatment of intellectual disability and neurodegenerative diseases in a subject with down syndrome” (UNIVERSITA' DEGLI STUDI DI ROMA “LA SAPIENZA”, priority 2021, dated 2026)",
  "key": {"Ts2Cje mice": {"tested_on": "Ts2Cje mice", "experiment": "Novel object recognition (NOR) cognitive test after intranasal treatment", "type": "in vivo, mouse", "conditions": "Ts2Cje mice 9 months of age; sitagliptin 5 mM intra-nasally, 10 μL/nostril, once a day for 21 days", "source_text": "Finally, animals were sacrificed using cervical dislocation. […] The Novel object recognition (NOR) test is a relatively fast and efficient means of testing different stages of learning and memory in mice. The test is based on a minimum of three sessions: a habituation session (Day 1), a training session (Day 2) and a test session (Day 3). Training simply involves visual exploration of two identical objects, while the test session involves replacing one of the previously explored objects with a new object. Since rodents have an innate preference for novelty, a rodent that remembers the familiar object will spend more time exploring the new object. […] In the habituation stage, each animal can freely explore the arena for 10 minutes (50 cm deep×30 cm wide×30 cm high) in the absence of objects. During the training stage, a single animal is placed in the arena containing two identical objects (two balls) for 10 min. In the testing stage, after 24 hours, the animal is brought back to the arena with two objects, one is the familiar object and the other is a new object (ball+lego). […] In the analysis stage, the discrimination index (DI) and preference index (PI) are evaluated. The discrimination index (DI) allows calculation of the animal's ability to discriminate between new (TN) and familiar (TF) objects [DI=(TN−TF)/(TN+TF)]. […]"}, "gephyrin and GABAA-R": {"tested_on": "gephyrin and GABAA-R", "experiment": "Immunofluorescence of gephyrin and GABAA-R co-localization in hippocampus CA3 and CA1", "type": "in vivo, mouse", "conditions": "Ts2Cje mice, confocal microscopy", "procedure": "Brains were placed in 4% paraformaldehyde for 24 hours. Brains were then fixed over the subsequent 48 hours in a 20% sucrose solution. Brain sections were then cut to a thickness of 15 μm using a cryostat (Leica System) and stored in an aqueous solution of PBS containing 0.02% NaN3 at 4° C. until use. Slices thus obtained were mounted on slides and were blocked and permeabilized by blocking solution (10% of normal goat serum and 0.2% Triton X-100 in TBS) for 2 hours.\nThe following day, the same slices were incubated with a mix of fluorescent secondary antibodies, to evaluate the co-localization of the two proteins, anti-mouse Alexa Fluor 488 nm for gephyrin and anti-rabbit Alexa Fluor 594 nm for GABA α2 (1:1500, Invitrogen, Carlsbad, California, CA, USA) for 2 hours at room temperature. The slices were then washed again and incubated with DAPI nuclear marker (1:10000, Invitrogen, Carlsbad, California, CA, USA). To subtract the non-specific background signal created by the secondary antibody, some sections were incubated only with the secondary antibody. Finally, the sample was sealed with a cover slip via fluorimount (Sigma-Aldrich, St Louis, MO, USA). The acquisition and analysis of brain sections was carried out using Leica TCS SP5× confocal microscopy and ImageJ analysis software."}, "DYRK1A protein": {"tested_on": "DYRK1A protein", "experiment": "DYRK1A protein levels in primary hippocampal neurons isolated from Ts2Cje mice", "type": "cell-based, mouse", "conditions": "1, 5, 10 μM for 24 hours, vs untreated Ts2Cje", "experimental": "For Western blots, 20 μg of proteins from the hippocampus of mice belonging to the four experimental groups were separated by 4-15% SDS-PAGE Criterion™ TGX (Tris-Glyicine eXtended) Stain-Free™ (Bio-rad, Hercules, CAUSE). This type of gel allows a rapid acquisition of the protein run in the ultraviolet (UV) by Chemidoc™ MP imaging systems (Bio-rad, Hercules, CA, USA). Therefore, the gel, once the image has been acquired, represents the total of the loaded proteins (Total Load), which will then be used to normalize the specific proteins to be examined. After electrophoresis and gel imaging, proteins are transferred via the semi-dry TransBlot Turbo apparatus (Bio-Rad Laboratories) onto nitrocellulose membranes (Bio-Rad, Hercules, CA, USA). Nitrocellulose membranes are blocked with 3% bovine serum albumin (BSA) in a solution of Tween 20-TBS and incubated overnight at 4° C. using specific primary antibodies: p(T216)-GSK3B (1:1000, Santa Cruz, #sc-135653), p(S9)-GSK3β (1:1000, Cell Signaling, #5558S), GSK3β (1:1000 Abcam, #93926) and DYRK1A (1:1000, Cell Signaling, #8765S), MAPK44/42 (1:1000, Cell Signaling, #9102), p(Thr202/Tyr204)-MAPK44/42 (1 1000, Cell Signaling, #9101), Akt (1:2000, Bio-Rad, # vma00253K), p(S473) Akt (1:1000, Cell Signaling, #4060S). After three washes with a T-TBS buffer solution, membranes were incubated for 1 hour at room temperature with the secondary antibodies. Secondary antibodies with peroxidase activity are anti-mouse or anti-rabbit (1:5000, Bio-rad, Hercules, CA, USA). Membranes were developed using Clarity Enhanced Chemiluminescence (ECL), a chemiluminescent substrate (Bio-rad, Hercules, CA, USA) and acquired with Chemidoc Mp (Bio-rad, Hercules, CA, USA). Finally, the results obtained were analyzed using the ImageLab program (Bio-rad, Hercules, CA, USA).\nIn order to isolate primary hippocampal neurons, hippocampi from Ts and euploid mice were mechanically dissociated in PBS (with Ca^2+ and Mg^2−) and centrifuged (3 minutes, 1100 rpm, 25° C.). […]"}},
  "data": [
    {"smiles": "N[C@@H](CC(=O)N1CCn2c(nnc2C(F)(F)F)C1)Cc1cc(F)c(F)cc1F", "note": "[sitagliptin, (R)-4-oxo-4-[3-(trifluoromethyl)-5,6-dihydro[1,2,4]triazole[4,3-a]pyrazin-7(8H)-yl]-1-(2,4,5-trifluorophenyl)butan-2-amine]", "values": [
      {"measurement": "cognitive performance, novel object recognition (NOR)", "setting": "Ts2Cje mice", "result": "marked improvement in cognitive performance"},
      {"measurement": "clusters of gephyrin and GABAA-R at the synaptic level", "setting": "gephyrin and GABAA-R", "result": "reduction of the clusters of gephyrin and GABAA-R"},
      {"measurement": "levels of the DYRK1A protein in Ts2Cje neurons", "setting": "DYRK1A protein", "result": "significant reduction"}
    ]}
  ]
}
